The values below come from the Deep4Chem optical property database.

A short description of the first data set: solvent given as SMILES. The note with it: in CO.
Take `CCN(CC)c1ccc2nc3c4ccccc4c(=O)cc-3oc2c1`: the emission maximum is listed as 643 nm.

`CCOC(=O)CC[N+]1=c2cc3c(cc2CCC1)=Cc1c(c2cc4c5c(c2oc1=O)CCCN5CCC4)O3` returned an emission maximum of 681 nm.

Turning to `c1ccc(Nc2nc(Nc3ccccc3)nc(Nc3ccc4ccc5cccc6ccc3c4c56)n2)cc1`, the emission maximum is 395 nm.

Staying with this data set, now noted: in CS(C)=O.
As for `COC(=O)c1ccc(C#Cc2ccc(N(C)C)cc2)cc1`, the emission maximum is 548.49 nm.

For the molecule `COc1ccc(/C=C/C2=CC(/C=C/c3ccc(OC)cc3)=[O+][B-](OC(C)=O)(OC(C)=O)O2)cc1`, the emission maximum was 548 nm.

With `CC(=O)c1ccc2ccc3c(NCCC(=O)NCCCCCCc4nc5c(=O)[nH]c(N)nc5n4[C@H]4C[C@H](O)[C@@H](CO)O4)ccc4ccc1c2c43`, the emission maximum turned out to be 551 nm.

`Cc1ccc2nc(-c3cc(-c4nc5ccc(C)cc5[nH]4)cc(-c4nc5ccc(C)cc5[nH]4)c3)[nH]c2c1` came in with an emission maximum of 386.5 nm.

In turn, `CCN(CC)c1ccc2nc3c4ccccc4c(=O)cc-3oc2c1` showed an emission maximum of 635 nm.

Staying with this data set, now noted: in Cc1ccccc1.
For the molecule `O=S(=O)(c1ccc(N2c3ccccc3N(c3ccccc3)c3ccccc32)cc1)c1ccc(N2c3ccccc3N(c3ccccc3)c3ccccc32)cc1`, the emission maximum is reported as 577 nm.

Regarding `Cc1cc(N2c3ccccc3C(C)(C)c3ccccc32)ccc1-c1ncnc(-c2ccc(N3c4ccccc4C(C)(C)c4ccccc43)cc2C)c1C`, the emission maximum is 454 nm.

As to `CN(C)c1ccc(C2=Nc3sc4cc(C(F)(F)F)ccc4[n+]3[B-](F)(F)O2)cc1`, the emission maximum came to 460 nm.

As to `COC(=O)c1ccc(C#Cc2ccc(N(C)C)cc2)cc1`, the emission maximum was 381 nm.

Turning to `COc1ccc(/C=C/C2=CC(/C=C/c3ccc(OC)cc3)=[O+][B-](OC(C)=O)(OC(C)=O)O2)cc1`, the emission maximum is 510 nm.

`CC1=CC(C)=[N+]2C1=C(c1c3ccccc3c(C)c3ccccc13)c1c(C)cc(C)n1[B-]2(F)F` had an emission maximum of 517 nm.

`CC1(C)c2ccccc2N(c2ccc(-c3ccc4c(c3)C(=O)c3ccc(-c5ccc(N6c7ccccc7C(C)(C)c7ccccc76)cc5)cc3C4=O)cc2)c2ccccc21` gave an emission maximum of 609 nm.

Regarding `C(#Cc1cccc(C#Cc2ccc(-n3c4ccccc4c4ccccc43)cc2)c1)c1ccc(-n2c3ccccc3c3ccccc32)cc1`, the emission maximum was 374 nm.

On to `CCN(CC)c1ccc2nc3c4ccccc4c(=O)cc-3oc2c1`, for which the emission maximum is recorded as 572 nm.

Take `COc1ccc(C2=C(c3ccc(OC)cc3)C(c3ccccc3)=[N+]3C2=Nc2c(-c4ccc(OC)cc4)c(-c4ccc(OC)cc4)c(-c4ccccc4)n2[B-]3(F)F)cc1`: the emission maximum is reported as 750 nm.

In turn, `CCN(CC)c1ccc([N+]2=Cc3ccc4c5c(ccc4c3O[B-]2(c2ccccc2)c2ccccc2)C=[N+](c2ccc(N(CC)CC)cc2)[B-](c2ccccc2)(c2ccccc2)O5)cc1` gave an emission maximum of 627 nm.

In turn, `c1ccc(Cn2c3sccc3c3c4nsnc4c4c5ccsc5n(Cc5ccccc5)c4c32)cc1` yielded an emission maximum of 508 nm.

Still in this data set, the particulars now being: in ClC(Cl)Cl.
Take `COc1ccc(/C=C/C2=CC(/C=C/c3ccc(OC)cc3)=[O+][B-](OC(C)=O)(OC(C)=O)O2)cc1`: the emission maximum worked out at 529 nm.

On to `Clc1ccc(-c2nc(-c3ccccc3)sc2N(c2ccccc2)c2ccccc2)cc1`, for which the emission maximum worked out at 463 nm.

On to `CCCCCCN1C(=O)c2cccc3cc(/N=C\c4cn(C)c5ccccc45)cc(c23)C1=O`, for which the emission maximum turned out to be 500 nm.

Consider `Cc1nc2c(ccc3c2sc(/C=C/c2ccc(N(CCO)CCO)cc2)[n+]3C)s1`, for which the emission maximum is 603 nm.

`C(#Cc1cccc(C#Cc2ccc(-n3c4ccccc4c4ccccc43)cc2)c1)c1ccc(-n2c3ccccc3c3ccccc32)cc1` came in with an emission maximum of 368 nm.

Take `CN1CCc2cc(C3=Cc4cccc[n+]4[B-](F)(F)O3)ccc21`: the emission maximum is 515 nm.

Molecule `CCCCCCc1cc2c3cscc3c3cc(CCCCCC)sc3c2s1` registered an emission maximum of 442 nm.

Still in this data set, the particulars now being: in ClCCCl.
Molecule `CCn1c(=O)nc2n(C)c3cc(C)ccc3nc-2c1=O` gave an emission maximum of 531 nm.

Still in this data set, the particulars now being: in ClCCl.
Regarding `CC(C)(C)c1ccc(-c2nc3c4ccccc4c4ccccc4c3n2-c2ccc(-c3ccc(N(c4ccccc4)c4ccccc4)cc3)cc2)cc1`, the emission maximum stood at 426 nm.

Regarding `CN(C)c1ccc(C2=Nc3sc4cc(C(F)(F)F)ccc4[n+]3[B-](F)(F)O2)cc1`, the emission maximum was 478 nm.

Take `CCOC(=O)c1ccc(C2=Cc3cc4ccccc4cc3P2(=O)c2ccccc2)cc1` (stereo not drawn): the emission maximum was found to be 432 nm.

Consider `COc1ccc(/C=C/C2=CC(/C=C/c3ccc(OC)cc3)=[O+][B-](OC(C)=O)(OC(C)=O)O2)cc1`, for which the emission maximum came out at 535 nm.

`C1=CC2C=c3c(cc4cccc5cc6ccccc6c3c45)C3=c4ccccc4=CC(=C1)C32` (stereo not drawn) yielded an emission maximum of 683 nm.

`CC1=CC(C)=[N+]2C1=C(c1c3ccccc3c(C)c3ccccc13)c1c(C)cc(C)n1[B-]2(F)F` yielded an emission maximum of 519 nm.

`F[B-]12Oc3ccccc3-c3c4[n+]5c(c([n+]31)-c1ccccc1O2)-c1ccccc1O[B-]5(F)Oc1ccccc1-4` showed an emission maximum of 623 nm.

With `C(#Cc1cccc(C#Cc2ccc(-n3c4ccccc4c4ccccc43)cc2)c1)c1ccc(-n2c3ccccc3c3ccccc32)cc1`, the emission maximum is listed as 394 nm.

`CC[N+](CC)=c1ccc2cc3oc4cc(N)ccc4c3oc-2c1` registered an emission maximum of 623 nm.

In turn, `c1ccc(-n2nc(-c3ccc(N4c5ccccc5Sc5ccccc54)cc3)nc2-c2ccccn2)cc1` had an emission maximum of 468 nm.

`CSc1ccc(/C=C/c2ccncn2)cc1` came in with an emission maximum of 435 nm.

Consider `CCOC(=O)c1c(-c2cc3ccc(OCC=C(C)C)cc3oc2=O)nn(-c2cccc(C)c2)c1C(=O)OCC`, for which the emission maximum is 425 nm.

Turning to `CC1=c2ccccc2=[N+]2C1=Cc1c3ccccc3c(-c3[nH]c4ccccc4c3C)n1[B-]2(F)F`, the emission maximum came to 648 nm.

With `CCN(CC)c1ccc2nc3c4ccccc4c(=O)cc-3oc2c1`, the emission maximum is listed as 608 nm.

`CCCC1=Cc2nc1ccc1[nH]c(cc1CCC)c1nc(c(NC(=O)CCCC(=O)O)cc3[nH]c2cc3CCC)C(CCC)=C1` yielded an emission maximum of 680 nm.

As for `CCN(CC)c1ccc([N+]2=Cc3ccc4c5c(ccc4c3O[B-]2(c2ccccc2)c2ccccc2)C=[N+](c2ccc(N(CC)CC)cc2)[B-](c2ccccc2)(c2ccccc2)O5)cc1`, the emission maximum stood at 644 nm.

`COC(=O)c1cc(=O)n(C)c2cc(-c3ccccc3OC)sc12` showed an emission maximum of 469 nm.

As to `CCCCCCCCOc1ccc(C#Cc2ccc3oc4ccccc4c3c2)c(OCCCCCCCC)c1`, the emission maximum amounted to 373 nm.

Consider `c1ccc(Cn2c3sccc3c3c4nsnc4c4c5ccsc5n(Cc5ccccc5)c4c32)cc1`, for which the emission maximum stood at 541 nm.

`CC[N+](CC)=c1ccc2c(C(F)(F)F)c3c(oc-2c1)-c1ccc(N(C)C)cc1CC3` showed an emission maximum of 713 nm.

The molecule `CCOC(=O)CC[N+]1=c2cc3c(cc2CCC1)=Cc1c(c2cc4c5c(c2oc1=O)CCCN5CCC4)O3` returned an emission maximum of 676 nm.

The same data set, now with this note: in O.
`CC[N+]1(CC)CN2C(=N1)C(C(=O)O)=Cc1cc(OC)ccc12`: the emission maximum was determined as 491 nm.

The molecule `CC(=O)c1ccc2ccc3c(NCCC(=O)NCCCCCCc4nc5c(=O)[nH]c(N)nc5n4[C@H]4C[C@H](O)[C@@H](CO)O4)ccc4ccc1c2c43` registered an emission maximum of 573 nm.

For `CC[N+](CC)=c1ccc2cc3oc4cc(N)ccc4c3oc-2c1`, the emission maximum was 627 nm.

`CC[N+](CC)=c1ccc2c(C(F)(F)F)c3c(oc-2c1)-c1ccc(N(C)C)cc1CC3`: the emission maximum is 716 nm.

As for `CCOC(=O)CC[N+]1=c2cc3c(cc2CCC1)=Cc1c(c2cc4c5c(c2oc1=O)CCCN5CCC4)O3`, the emission maximum was 688 nm.

Staying with this data set, now noted: in O=P(c1ccccc1)(c1ccccc1)c1ccccc1Oc1ccccc1P(=O)(c1ccccc1)c1ccccc1.
Turning to `Cc1cc(N2c3ccccc3C(C)(C)c3ccccc32)ccc1-c1ncnc(-c2ccc(N3c4ccccc4C(C)(C)c4ccccc43)cc2C)c1C`, the emission maximum is listed as 454 nm.

Staying with this data set, now noted: in OCC(O)CO.
`CC(=O)c1ccc2ccc3c(NCCC(=O)NCCCCCCc4nc5c(=O)[nH]c(N)nc5n4[C@H]4C[C@H](O)[C@@H](CO)O4)ccc4ccc1c2c43` displayed an emission maximum of 567 nm.

Still in this data set, the particulars now being: in c1cc(-n2c3ccccc3c3ccccc32)cc(-n2c3ccccc3c3ccccc32)c1.
Regarding `O=S(=O)(c1ccc(N2c3ccccc3N(c3ccccc3)c3ccccc32)cc1)c1ccc(N2c3ccccc3N(c3ccccc3)c3ccccc32)cc1`, the emission maximum is 580 nm.

The data set is the same for the next values; noted with them: in c1ccc2c(c1)c1ccccc1n2-c1ccc(-c2ccc(-n3c4ccccc4c4ccccc43)cc2)cc1.
Turning to `CC1(C)c2ccccc2N(c2ccc(-c3ccc4c(c3)C(=O)c3ccc(-c5ccc(N6c7ccccc7C(C)(C)c7ccccc76)cc5)cc3C4=O)cc2)c2ccccc21`, the emission maximum was 564 nm.
